Source: patent US10329309B2, “3-(3H-imidazo[4,5-B]pyridin-2-yl)-1H-pyrazolo[4,3-B]pyridines and therapeutic uses thereof” (Samumed, LLC, priority 2015, dated 2019)

Key:
Format in all cases: cell-based
[1] = tested on: Wnt activity (Sp5-Luc reporter, SW480 colon carcinoma cells); test: Screening assay for Wnt activity: Sp5-Luc reporter gene assay in SW480 cells; details: Homo sapiens; for inhibition at 10 µM: 10 μM compound, read-out: percent inhibition at 10 μM (given for EC50 of >10 μM); for EC50: overnight incubation, 10-point dose-response from 10 μM
In short: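 SW480 cells stably carrying Sp5-Luc reporter (eight TCF/LEF sites) plated at 4,000/well in 1% FBS medium with compound (10-point 1:3 series from 10 μM, 0.1% DMSO) overnight at 37 °C. BrightGlo luminescence normalized to DMSO; EC50 by four-parameter fit, else % inhibition at 10 μM.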

[2] = tested on: SW480 colon cancer cells; test: Cell viability assay (CellTiter-Blue), four days; details: Homo sapiens, 96 h; for EC50: CellTiter-Blue cell viability; for inhibition at 10 µM: read-out: percent inhibition at 10 μM (given for EC50 of >10 μM)
In short: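 Approximately 2×10^3 SW480 cells per well are seeded with compound (8 points, threefold steps, top 10 μM) and incubated four days at 37 °C. CellTiter-Blue is then added for about 3 h and fluorescence read. Non-linear regression gives EC50; for values beyond 10 μM, percent inhibition at that concentration is listed.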

[3] = tested on: IL-6 (THP-1 cells); test: Inhibition of IL-6 in LPS-stimulated THP-1 monocytes (HTRF); details: Homo sapiens; for EC50: LPS 500 ng/mL, IL-6 by HTRF; for inhibition at 10 µM: LPS stimulated, IL-6, at 10 μM, read-out: percent inhibition at 10 μM (given for EC50 of >10 μM)
In short: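 THP-1 cells, serum-starved in 1% FBS for 24 h, were pre-incubated 2 h with compound (10-point, 1:3 from 10 μM, 0.1% DMSO), then stimulated with 500 ng/mL LPS for 22 h at 37 °C. IL-6 was quantified by HTRF 665/620 ratio. EC50 was fitted from DMSO-normalized data; above 10 μM, % inhibition at 10 μM is given.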

EC50 [1] [µM] | EC50 [2] [µM] | EC50 [3] [µM] | Compound | inhibition at 10 µM [1] [%] | inhibition at 10 µM [2] [%] | inhibition at 10 µM [3] [%]
3.57 | 3.87 | > 10 | CN(C)CCOc1cncc(-c2ccc3[nH]nc(-c4nc5c(-c6cccs6)ccnc5[nH]4)c3n2)c1 [Compound 707, N,N-Dimethyl-2-((5-(3-(7-(thiophen-2-yl)-3H-imidazo[4,5-b]pyridin-2-yl)-1H-pyrazolo[4,3-b]pyridin-5-yl)pyridin-3-yl)oxy)ethan-1-amine] |  |  | 35.1
6.25 | 9.87 | > 10 | CN(C)CCNc1cc(F)cc(-c2ccnc3[nH]c(-c4n[nH]c5ccc(-c6cncc(OCCN7CCCC7)c6)nc45)nc23)c1 [Compound 786, N^1-(3-Fluoro-5-(2-(5-(5-(2-(pyrrolidin-1-yl)ethoxy)pyridin-3-yl)-1H-pyrazolo[4,3-b]pyridin-3-yl)-3H-imidazo[4,5-b]pyridin-7-yl)phenyl)-N^2,N^2-dimethylethane-1,2-diamine] |  |  | 0
3.93 | 4.37 | > 10 | CN(C)CCNc1cc(F)cc(-c2ccnc3[nH]c(-c4n[nH]c5ccc(-c6cnccn6)nc45)nc23)c1 [Compound 792, N^1-(3-Fluoro-5-(2-(5-(pyrazin-2-yl)-1H-pyrazolo[4,3-b]pyridin-3-yl)-3H-imidazo[4,5-b]pyridin-7-yl)phenyl)-N^2,N^2-dimethylethane-1,2-diamine] |  |  | 23.3
0.984 | > 10 | 1.79 | Cc1ccc(-c2ccnc3[nH]c(-c4n[nH]c5ccc(-c6cncc(OC7CCCCC7)c6)nc45)nc23)s1 [Compound 735, 5-(5-(Cyclohexyloxy)pyridin-3-yl)-3-(7-(5-methylthiophen-2-yl)-3H-imidazo[4,5-b]pyridin-2-yl)-1H-pyrazolo[4,3-b]pyridine] |  | 10.9 | 
> 10 | > 10 | > 10 | Fc1cccc(-c2ccnc3[nH]c(-c4n[nH]c5ccc(-c6cncc(OC7CCNCC7)c6)nc45)nc23)c1 [Compound 512, 3-(7-(3-fluorophenyl)-3H-imidazo[4,5-b]pyridin-2-yl)-5-(5-(piperidin-4-yloxy)pyridin-3-yl)-1H-pyrazolo[4,3-b]pyridine] | 45 | 15.7 | 35.7
> 10 | > 10 | 9.48 | Oc1cncc(-c2ccc3[nH]nc(-c4nc5c(-c6cccnc6)ccnc5[nH]4)c3n2)c1 [Compound 565, 5-(3-(7-(Pyridin-3-yl)-3H-imidazo[4,5-b]pyridin-2-yl)-1H-pyrazolo[4,3-b]pyridin-5-yl)pyridin-3-ol] | 14.1 | 5.9 | 

Second part, the molecule before the results:

Compound | EC50 [1] [µM] | EC50 [2] [µM] | EC50 [3] [µM] | inhibition at 10 µM [1] [%] | inhibition at 10 µM [2] [%] | inhibition at 10 µM [3] [%]
C1=C(c2ccc3[nH]nc(-c4nc5c(-c6ccc7c(c6)OCO7)ccnc5[nH]4)c3n2)CCNC1 [Compound 1109, 3-(7-(Benzo[d][1,3]dioxol-5-yl)-3H-imidazo[4,5-b]pyridin-2-yl)-5-(1,2,3,6-tetrahydropyridin-4-yl)-1H-pyrazolo[4,3-b]pyridine] | > 10 | > 10 | > 10 | 14.5 | 10.9 | 20.5
Cc1cn(-c2ccnc3[nH]c(-c4n[nH]c5ccc(-c6cncc(CN7CCCC7)c6)nc45)nc23)cn1 [Compound 210, 3-(7-(4-methyl-1H-imidazol-1-yl)-3H-imidazo[4,5-b]pyridin-2-yl)-5-(5-(pyrrolidin-1-ylmethyl)pyridin-3-yl)-1H-pyrazolo[4,3-b]pyridine] | > 10 | > 10 | > 10 | 31.5 | 12.6 | 21.7
O=C(CC1CCNCC1)Nc1cncc(-c2ccc3[nH]nc(-c4nc5c(-c6ccsc6)ccnc5[nH]4)c3n2)c1 [Compound 673, 2-(Piperidin-4-yl)-N-(5-(3-(7-(thiophen-3-yl)-3H-imidazo[4,5-b]pyridin-2-yl)-1H-pyrazolo[4,3-b]pyridin-5-yl)pyridin-3-yl)acetamide] | > 10 | > 10 | > 10 | 26.9 | 0.6 | 35.9
CC(C)C(=O)Nc1cncc(-c2ccc3[nH]nc(-c4nc5c(-c6cccnc6)ccnc5[nH]4)c3n2)c1 [Compound 93, N-(5-(3-(7-(pyridin-3-yl)-3H-imidazo[4,5-b]pyridin-2-yl)-1H-pyrazolo[4,3-b]pyridin-5-yl)pyridin-3-yl)isobutyramide] | > 10 | > 10 | 0.984 | 10.2 | 8.1 | 
O=C(Nc1cncc(-c2ccc3[nH]nc(-c4nc5cccnc5[nH]4)c3n2)c1)C1CCCCC1 [Compound 275, N-(5-(3-(3H-Imidazo[4,5-b]pyridin-2-yl)-1H-pyrazolo[4,3-b]pyridin-5-yl)pyridin-3-yl)cyclohexanecarboxamide] | > 10 | > 10 | > 10 | 3.1 | 2.6 | 33.1
Cc1cn(-c2ccnc3[nH]c(-c4n[nH]c5ccc(-c6cncc(NC(=O)C7CCC7)c6)nc45)nc23)cn1 [Compound 217, N-(5-(3-(7-(4-methyl-1H-imidazol-1-yl)-3H-imidazo[4,5-b]pyridin-2-yl)-1H-pyrazolo[4,3-b]pyridin-5-yl)pyridin-3-yl)cyclobutanecarboxamide] | > 10 | > 10 | > 10 | 13.9 | 2.1 | 35.6
CN1CCN(c2ccnc3[nH]c(-c4n[nH]c5ccc(-c6cnccn6)nc45)nc23)CC1 [Compound 648, 3-(7-(4-Methylpiperazin-1-yl)-3H-imidazo[4,5-b]pyridin-2-yl)-5-(pyrazin-2-yl)-1H-pyrazolo[4,3-b]pyridine] | 4.34 | 3.91 | > 10 |  |  | 9.9
CCCCC(=O)Nc1cncc(-c2ccc3[nH]nc(-c4nc5c(-c6cc(F)cc(NCCN(C)C)c6)ccnc5[nH]4)c3n2)c1 [Compound 467, N-(5-(3-(7-(3-((2-(dimethylamino)ethyl)amino)-5-fluorophenyl)-3H-imidazo[4,5-b]pyridin-2-yl)-1H-pyrazolo[4,3-b]pyridin-5-yl)pyridin-3-yl)pentanamide] | > 10 | > 10 | > 10 | 34.1 | 2.7 | 23
Fc1cccc(-c2ccnc3[nH]c(-c4n[nH]c5ccc(C6CCNCC6)nc45)nc23)c1 [Compound 505, 3-(7-(3-fluorophenyl)-3H-imidazo[4,5-b]pyridin-2-yl)-5-(piperidin-4-yl)-1H-pyrazolo[4,3-b]pyridine] | > 10 | 8.3 | 3.48 | 16 |  | 
c1cnc2[nH]c(-c3n[nH]c4ccc(-c5cncc(OC6CCNCC6)c5)nc34)nc2c1 [Compound 656, 3-(3H-Imidazo[4,5-b]pyridin-2-yl)-5-(5-(piperidin-4-yloxy)pyridin-3-yl)-1H-pyrazolo[4,3-b]pyridine] | > 10 | > 10 | 7.6 | 22.1 | 11.4 | 
CS(=O)(=O)NCc1cc(F)cc(-c2ccnc3[nH]c(-c4n[nH]c5ccc(-c6cncc(NC(=O)CC7CCNCC7)c6)nc45)nc23)c1 [Compound 769, N-(5-(3-(7-(3-Fluoro-5-(methylsulfonamidomethyl)phenyl)-3H-imidazo[4,5-b]pyridin-2-yl)-1H-pyrazolo[4,3-b]pyridin-5-yl)pyridin-3-yl)-2-(piperidin-4-yl)acetamide] | > 10 | > 10 | 0.036 | 12.1 | 8.5 | 
O=C(Nc1cncc(-c2ccc3[nH]nc(-c4nc5c(-c6ccccn6)ccnc5[nH]4)c3n2)c1)c1ccccc1 [Compound 151, N-(5-(3-(7-(Pyridin-2-yl)-3H-imidazo[4,5-b]pyridin-2-yl)-1H-pyrazolo[4,3-b]pyridin-5-yl)pyridin-3-yl)benzamide] | > 10 | > 10 | > 10 | 6.4 | 2.7 | 39.1
CC(C)(C)C(=O)Nc1cncc(-c2ccc3[nH]nc(-c4nc5c(-c6ccc(F)cc6)ccnc5[nH]4)c3n2)c1 [Compound 36, N-(5-(3-(7-(4-fluorophenyl)-3H-imidazo[4,5-b]pyridin-2-yl)-1H-pyrazolo [4,3-b]pyridin-5-yl)pyridin-3-yl)pivalamide] | > 10 | > 10 | > 10 | 28.4 | 15 | 19.2
